What all share (experiment): KINOMEscan
What all share (format): binding
Conditions in all cases: read-out: % control activity remaining

The target in one assay is T1, CSF1R-autoinhibited (Homo sapiens, UniProt P07333).
T1 construct: purchased Eurofins DiscoverX KINOMEscan
T1 sequence (P07333 539-972 limits assumed): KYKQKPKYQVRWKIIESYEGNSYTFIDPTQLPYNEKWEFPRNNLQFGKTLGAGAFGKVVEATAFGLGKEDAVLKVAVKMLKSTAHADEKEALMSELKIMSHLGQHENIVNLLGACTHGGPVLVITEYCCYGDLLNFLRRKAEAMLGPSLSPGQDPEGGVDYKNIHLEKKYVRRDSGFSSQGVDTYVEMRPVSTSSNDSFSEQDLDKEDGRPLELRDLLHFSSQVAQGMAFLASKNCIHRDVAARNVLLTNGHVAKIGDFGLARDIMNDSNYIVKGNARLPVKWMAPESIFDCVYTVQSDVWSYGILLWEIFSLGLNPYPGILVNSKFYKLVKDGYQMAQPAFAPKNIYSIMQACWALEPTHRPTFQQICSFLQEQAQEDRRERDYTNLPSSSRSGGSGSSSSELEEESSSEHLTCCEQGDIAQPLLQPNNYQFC

The next assay addresses T2, DYRK2 (Homo sapiens, UniProt Q92630).
T2 construct: purchased Eurofins DiscoverX KINOMEscan
T2 sequence (Q92630 1-601): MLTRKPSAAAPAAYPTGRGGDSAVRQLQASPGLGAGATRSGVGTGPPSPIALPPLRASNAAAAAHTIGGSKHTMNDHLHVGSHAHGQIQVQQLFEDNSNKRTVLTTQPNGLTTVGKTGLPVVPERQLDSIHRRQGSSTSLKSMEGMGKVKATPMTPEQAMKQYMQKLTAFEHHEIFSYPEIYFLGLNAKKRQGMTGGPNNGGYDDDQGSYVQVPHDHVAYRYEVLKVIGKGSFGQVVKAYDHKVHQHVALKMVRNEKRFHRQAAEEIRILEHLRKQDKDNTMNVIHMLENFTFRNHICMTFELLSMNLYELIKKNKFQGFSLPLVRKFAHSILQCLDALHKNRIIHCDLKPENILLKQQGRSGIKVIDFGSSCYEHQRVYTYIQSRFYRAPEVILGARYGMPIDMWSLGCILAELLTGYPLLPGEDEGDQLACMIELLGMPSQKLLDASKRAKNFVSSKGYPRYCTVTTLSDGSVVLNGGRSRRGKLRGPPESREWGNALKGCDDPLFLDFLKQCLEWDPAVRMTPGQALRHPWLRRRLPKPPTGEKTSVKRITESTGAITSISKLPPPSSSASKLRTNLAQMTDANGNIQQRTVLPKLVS

A further assay addresses T3, FAK (Homo sapiens, UniProt Q05397).
T3 construct: purchased Eurofins DiscoverX KINOMEscan

Another assay has as its target T4, TBK1 (Homo sapiens, UniProt Q9UHD2).
T4 construct: purchased Eurofins DiscoverX KINOMEscan
T4 sequence (Q9UHD2 1-729): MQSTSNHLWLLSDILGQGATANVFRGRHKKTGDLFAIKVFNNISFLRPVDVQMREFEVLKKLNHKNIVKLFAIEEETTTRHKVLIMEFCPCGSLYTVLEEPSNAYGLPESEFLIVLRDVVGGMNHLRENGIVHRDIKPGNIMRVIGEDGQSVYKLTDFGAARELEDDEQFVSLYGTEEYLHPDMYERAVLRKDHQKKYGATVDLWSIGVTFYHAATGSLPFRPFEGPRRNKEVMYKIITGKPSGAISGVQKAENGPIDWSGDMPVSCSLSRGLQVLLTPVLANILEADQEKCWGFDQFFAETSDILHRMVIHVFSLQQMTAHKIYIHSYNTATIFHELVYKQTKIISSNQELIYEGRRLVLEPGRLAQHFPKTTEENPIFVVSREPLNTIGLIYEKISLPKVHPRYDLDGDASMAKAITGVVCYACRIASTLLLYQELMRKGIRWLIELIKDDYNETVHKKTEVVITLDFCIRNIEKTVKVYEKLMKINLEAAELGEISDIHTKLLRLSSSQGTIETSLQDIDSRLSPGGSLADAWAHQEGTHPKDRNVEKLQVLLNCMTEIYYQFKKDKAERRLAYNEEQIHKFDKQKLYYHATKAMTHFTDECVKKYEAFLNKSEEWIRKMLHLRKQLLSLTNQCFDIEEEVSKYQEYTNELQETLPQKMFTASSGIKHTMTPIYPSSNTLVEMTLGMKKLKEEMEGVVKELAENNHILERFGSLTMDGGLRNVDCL

For another assay, the target named is T5, MEK3 (Homo sapiens, UniProt P46734).
T5 construct: purchased Eurofins DiscoverX KINOMEscan
T5 sequence (P46734 1-347): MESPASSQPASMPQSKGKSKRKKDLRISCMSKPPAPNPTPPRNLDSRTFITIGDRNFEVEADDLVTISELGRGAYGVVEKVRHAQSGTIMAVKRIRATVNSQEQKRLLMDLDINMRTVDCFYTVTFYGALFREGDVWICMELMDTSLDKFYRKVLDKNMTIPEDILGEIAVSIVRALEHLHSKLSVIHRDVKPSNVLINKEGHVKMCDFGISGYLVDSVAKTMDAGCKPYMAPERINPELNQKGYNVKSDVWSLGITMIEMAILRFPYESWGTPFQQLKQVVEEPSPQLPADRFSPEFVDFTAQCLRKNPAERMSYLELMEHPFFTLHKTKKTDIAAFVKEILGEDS

In a further assay the target is T6, HUNK (Homo sapiens, UniProt P57058).
T6 construct: purchased Eurofins DiscoverX KINOMEscan
T6 sequence (P57058 1-714): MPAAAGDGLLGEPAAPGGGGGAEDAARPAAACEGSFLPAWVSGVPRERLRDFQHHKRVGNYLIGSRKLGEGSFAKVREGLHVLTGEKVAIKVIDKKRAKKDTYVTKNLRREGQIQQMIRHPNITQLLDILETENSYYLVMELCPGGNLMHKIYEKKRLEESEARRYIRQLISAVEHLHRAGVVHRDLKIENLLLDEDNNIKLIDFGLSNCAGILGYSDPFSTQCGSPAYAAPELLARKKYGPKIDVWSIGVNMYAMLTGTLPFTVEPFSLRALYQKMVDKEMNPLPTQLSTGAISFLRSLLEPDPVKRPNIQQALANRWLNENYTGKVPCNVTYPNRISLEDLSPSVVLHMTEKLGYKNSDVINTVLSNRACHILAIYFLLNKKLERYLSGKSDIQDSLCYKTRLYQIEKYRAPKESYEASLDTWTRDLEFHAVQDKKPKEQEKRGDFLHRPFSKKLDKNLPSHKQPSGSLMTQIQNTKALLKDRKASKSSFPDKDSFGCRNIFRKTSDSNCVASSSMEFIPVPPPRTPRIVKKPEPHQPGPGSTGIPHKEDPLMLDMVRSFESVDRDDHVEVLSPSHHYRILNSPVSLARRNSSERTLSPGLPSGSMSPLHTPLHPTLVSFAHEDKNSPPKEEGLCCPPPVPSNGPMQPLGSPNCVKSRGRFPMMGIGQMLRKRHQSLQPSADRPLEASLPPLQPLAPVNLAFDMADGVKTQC

A further assay concerns the target T7, STK39 (Homo sapiens, UniProt Q9UEW8).
T7 construct: purchased Eurofins DiscoverX KINOMEscan

The values that follow come from paper PMC6437697 (Journal of Medicinal Chemistry, 2019).

The structures appear in SMILES notation.

T3 sequence (Q05397 whole entry): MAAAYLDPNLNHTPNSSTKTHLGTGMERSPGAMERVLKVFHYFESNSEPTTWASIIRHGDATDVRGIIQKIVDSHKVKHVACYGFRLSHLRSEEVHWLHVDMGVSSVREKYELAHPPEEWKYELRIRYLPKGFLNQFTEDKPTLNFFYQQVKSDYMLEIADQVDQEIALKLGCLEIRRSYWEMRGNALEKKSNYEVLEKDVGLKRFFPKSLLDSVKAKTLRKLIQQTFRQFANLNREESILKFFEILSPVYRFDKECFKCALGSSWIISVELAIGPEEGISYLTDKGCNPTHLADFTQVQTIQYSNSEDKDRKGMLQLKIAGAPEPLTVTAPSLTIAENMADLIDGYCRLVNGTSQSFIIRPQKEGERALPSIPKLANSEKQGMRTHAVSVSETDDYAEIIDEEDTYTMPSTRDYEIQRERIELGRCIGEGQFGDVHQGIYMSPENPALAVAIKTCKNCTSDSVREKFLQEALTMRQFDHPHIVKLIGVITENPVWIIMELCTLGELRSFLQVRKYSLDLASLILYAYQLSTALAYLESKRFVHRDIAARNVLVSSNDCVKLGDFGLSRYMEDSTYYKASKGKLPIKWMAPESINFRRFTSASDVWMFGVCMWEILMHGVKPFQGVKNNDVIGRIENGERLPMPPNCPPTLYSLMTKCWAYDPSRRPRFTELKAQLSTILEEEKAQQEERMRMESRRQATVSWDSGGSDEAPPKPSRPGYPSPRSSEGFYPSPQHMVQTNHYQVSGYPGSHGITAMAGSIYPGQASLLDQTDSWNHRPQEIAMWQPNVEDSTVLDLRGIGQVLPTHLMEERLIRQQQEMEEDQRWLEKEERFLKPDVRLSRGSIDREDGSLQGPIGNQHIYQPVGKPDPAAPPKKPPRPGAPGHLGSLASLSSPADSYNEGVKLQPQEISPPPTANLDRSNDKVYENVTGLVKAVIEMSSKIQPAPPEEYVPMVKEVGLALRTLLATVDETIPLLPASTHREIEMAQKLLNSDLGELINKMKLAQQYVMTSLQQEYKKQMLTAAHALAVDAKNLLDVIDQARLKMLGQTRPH

On to `Clc1cc(NCC2CC2)c2ncc(-c3ccc4[nH]ncc4c3)n2n1` [compound 2, 6-Chloro-N-(cyclopropylmethyl)-3-(1H-indazol-5-yl)imidazo[1,2-b]pyridazin-8-amine], for which the remaining binding at 1 µM on CSF1R-autoinhibited worked out at 98%; on DYRK2, 28%; at FAK it was 91%; at TBK1, 71%; at MEK3 it was 87%; at HUNK it was 90%. Besides, the remaining binding at 1 µM on STK39 is 88%.
In the case of `O=C(CN1CCOCC1)N[C@H]1CC[C@H](Nc2cc(Cl)nn3c(-c4ccc5[nH]ncc5c4)cnc23)CC1` [compound 26], the remaining binding at 1 µM on CSF1R-autoinhibited was found to be 91%; on DYRK2, 8%; on FAK, 100%; on TBK1, 90%; at MEK3 it was 100%; at HUNK it was 100%. The remaining binding at 1 µM at STK39 worked out at 89%.
Consider `CN1CCC(CNc2cc(Cl)nn3c(-c4cc5nc(Nc6ccccc6)[nH]c5cc4F)cnc23)CC1` [compound 31, 6-Chloro-3-(6-fluoro-2-(phenylamino)-1H-benzo[d]imidazol-5-yl)-N-((1-methylpiperidin-4-yl)methyl)imidazo[1,2-b]pyridazin-8-amine], for which the remaining binding at 1 µM on CSF1R-autoinhibited is 100%; at DYRK2, 99%; on FAK it was 97%; at TBK1, 76%; on MEK3, 88%; at HUNK it was 92%. Besides, at STK39, the remaining binding at 1 µM stood at 98%.
